In patent US12139487B2, “Compounds and uses thereof” (Foghorn Therapeutics Inc., priority 2022, dated 2024):

Experiments:
[1] = biological target: T1, BRG-1 (Homo sapiens, UniProt P51532); assay: ATPase catalytic activity assay (ADP-Glo), BRG-1; type: biochemical; conditions: Table 10, read-out: BRG1 IC50
T1 construct: made in house; host or cells: High Five insect cells
Experimental: The ATPase catalytic activity of BRM or BRG-1 was measured by an in vitro biochemical assay using ADP-Glo™ (Promega, V9102). The ADP-Glo™ kinase assay is performed in two steps once the reaction is complete. The first step is to deplete any unconsumed ATP in the reaction. The second step is to convert the reaction product ADP to ATP, which will be utilized by the luciferase to generate luminesce and be detected by a luminescence reader, such as Envision.
Then, following addition of 5 μL of ADP-Glo™ Reagent provided in the kit, the reaction incubates at room temperature for 40 minutes. Then, 10 μL of Kinase Detection Reagent provided in the kit is added to convert ADP to ATP, and the reaction incubates at room temperature for 60 minutes. Finally, luminescence measurement is collected with a plate-reading luminometer, such as Envision.

[2] = biological target: T2, BRM (Homo sapiens, UniProt P51531); assay: ATPase catalytic activity assay (ADP-Glo), BRM; type: biochemical; conditions: Table 10; for Ratio (BRG1 IC50 (μM) divided by BRM IC50 (μM)): ATPase assay, selectivity BRG1/BRM; for IC50: ATPase catalytic activity assay (ADP-Glo)
T2 construct: made in house; host or cells: High Five insect cells
Summary of the method: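 ADP-Glo luminescence measures ADP produced by BRM ATPase (30 nM) during 1 h at room temperature. ATP is 400 μM, with 20 nM salmon sperm DNA as cofactor. Buffer: 20 mM Tris pH 8, 20 mM MgCl2, 50 mM NaCl, 0.1% Tween-20, 1 mM DTT.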

T2 sequence (P51531 whole entry): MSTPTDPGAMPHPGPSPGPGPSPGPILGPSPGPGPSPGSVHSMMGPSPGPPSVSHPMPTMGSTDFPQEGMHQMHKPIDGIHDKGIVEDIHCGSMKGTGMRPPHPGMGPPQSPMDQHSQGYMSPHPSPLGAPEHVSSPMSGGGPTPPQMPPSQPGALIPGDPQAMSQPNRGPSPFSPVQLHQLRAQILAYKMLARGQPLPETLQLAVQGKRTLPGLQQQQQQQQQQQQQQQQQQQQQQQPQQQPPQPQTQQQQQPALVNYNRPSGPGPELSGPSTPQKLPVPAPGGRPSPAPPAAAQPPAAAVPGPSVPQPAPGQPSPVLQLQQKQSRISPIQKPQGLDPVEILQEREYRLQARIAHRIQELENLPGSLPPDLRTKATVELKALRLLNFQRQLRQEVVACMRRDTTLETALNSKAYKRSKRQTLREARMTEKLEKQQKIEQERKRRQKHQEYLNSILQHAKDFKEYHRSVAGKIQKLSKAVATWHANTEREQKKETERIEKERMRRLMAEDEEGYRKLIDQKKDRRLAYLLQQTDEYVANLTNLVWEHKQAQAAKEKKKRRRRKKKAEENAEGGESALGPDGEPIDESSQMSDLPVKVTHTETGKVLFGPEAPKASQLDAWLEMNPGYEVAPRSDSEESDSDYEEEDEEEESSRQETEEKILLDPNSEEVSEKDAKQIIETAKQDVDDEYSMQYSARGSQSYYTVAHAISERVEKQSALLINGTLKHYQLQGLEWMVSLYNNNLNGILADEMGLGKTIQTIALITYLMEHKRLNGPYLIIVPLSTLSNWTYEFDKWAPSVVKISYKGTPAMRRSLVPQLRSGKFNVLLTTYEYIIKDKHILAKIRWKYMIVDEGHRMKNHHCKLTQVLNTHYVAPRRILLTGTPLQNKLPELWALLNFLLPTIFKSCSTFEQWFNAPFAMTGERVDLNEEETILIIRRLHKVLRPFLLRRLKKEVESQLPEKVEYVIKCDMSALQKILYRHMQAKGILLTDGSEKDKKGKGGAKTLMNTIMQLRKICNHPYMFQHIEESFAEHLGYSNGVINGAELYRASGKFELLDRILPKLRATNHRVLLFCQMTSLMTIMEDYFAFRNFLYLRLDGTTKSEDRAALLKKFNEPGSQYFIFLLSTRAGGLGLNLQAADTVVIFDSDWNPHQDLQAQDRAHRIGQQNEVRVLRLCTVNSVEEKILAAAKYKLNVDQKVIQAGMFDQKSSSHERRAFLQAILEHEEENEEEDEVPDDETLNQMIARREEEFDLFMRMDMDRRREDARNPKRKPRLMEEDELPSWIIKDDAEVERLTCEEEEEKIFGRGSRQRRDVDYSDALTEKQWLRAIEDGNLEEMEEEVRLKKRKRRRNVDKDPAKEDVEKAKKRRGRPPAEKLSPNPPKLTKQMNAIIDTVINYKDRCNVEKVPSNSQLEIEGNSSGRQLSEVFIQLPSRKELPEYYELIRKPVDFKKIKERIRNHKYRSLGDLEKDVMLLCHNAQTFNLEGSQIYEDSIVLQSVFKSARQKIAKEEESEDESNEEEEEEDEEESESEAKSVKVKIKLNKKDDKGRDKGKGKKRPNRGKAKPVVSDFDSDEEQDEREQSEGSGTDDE
T1 sequence (P51532 whole entry): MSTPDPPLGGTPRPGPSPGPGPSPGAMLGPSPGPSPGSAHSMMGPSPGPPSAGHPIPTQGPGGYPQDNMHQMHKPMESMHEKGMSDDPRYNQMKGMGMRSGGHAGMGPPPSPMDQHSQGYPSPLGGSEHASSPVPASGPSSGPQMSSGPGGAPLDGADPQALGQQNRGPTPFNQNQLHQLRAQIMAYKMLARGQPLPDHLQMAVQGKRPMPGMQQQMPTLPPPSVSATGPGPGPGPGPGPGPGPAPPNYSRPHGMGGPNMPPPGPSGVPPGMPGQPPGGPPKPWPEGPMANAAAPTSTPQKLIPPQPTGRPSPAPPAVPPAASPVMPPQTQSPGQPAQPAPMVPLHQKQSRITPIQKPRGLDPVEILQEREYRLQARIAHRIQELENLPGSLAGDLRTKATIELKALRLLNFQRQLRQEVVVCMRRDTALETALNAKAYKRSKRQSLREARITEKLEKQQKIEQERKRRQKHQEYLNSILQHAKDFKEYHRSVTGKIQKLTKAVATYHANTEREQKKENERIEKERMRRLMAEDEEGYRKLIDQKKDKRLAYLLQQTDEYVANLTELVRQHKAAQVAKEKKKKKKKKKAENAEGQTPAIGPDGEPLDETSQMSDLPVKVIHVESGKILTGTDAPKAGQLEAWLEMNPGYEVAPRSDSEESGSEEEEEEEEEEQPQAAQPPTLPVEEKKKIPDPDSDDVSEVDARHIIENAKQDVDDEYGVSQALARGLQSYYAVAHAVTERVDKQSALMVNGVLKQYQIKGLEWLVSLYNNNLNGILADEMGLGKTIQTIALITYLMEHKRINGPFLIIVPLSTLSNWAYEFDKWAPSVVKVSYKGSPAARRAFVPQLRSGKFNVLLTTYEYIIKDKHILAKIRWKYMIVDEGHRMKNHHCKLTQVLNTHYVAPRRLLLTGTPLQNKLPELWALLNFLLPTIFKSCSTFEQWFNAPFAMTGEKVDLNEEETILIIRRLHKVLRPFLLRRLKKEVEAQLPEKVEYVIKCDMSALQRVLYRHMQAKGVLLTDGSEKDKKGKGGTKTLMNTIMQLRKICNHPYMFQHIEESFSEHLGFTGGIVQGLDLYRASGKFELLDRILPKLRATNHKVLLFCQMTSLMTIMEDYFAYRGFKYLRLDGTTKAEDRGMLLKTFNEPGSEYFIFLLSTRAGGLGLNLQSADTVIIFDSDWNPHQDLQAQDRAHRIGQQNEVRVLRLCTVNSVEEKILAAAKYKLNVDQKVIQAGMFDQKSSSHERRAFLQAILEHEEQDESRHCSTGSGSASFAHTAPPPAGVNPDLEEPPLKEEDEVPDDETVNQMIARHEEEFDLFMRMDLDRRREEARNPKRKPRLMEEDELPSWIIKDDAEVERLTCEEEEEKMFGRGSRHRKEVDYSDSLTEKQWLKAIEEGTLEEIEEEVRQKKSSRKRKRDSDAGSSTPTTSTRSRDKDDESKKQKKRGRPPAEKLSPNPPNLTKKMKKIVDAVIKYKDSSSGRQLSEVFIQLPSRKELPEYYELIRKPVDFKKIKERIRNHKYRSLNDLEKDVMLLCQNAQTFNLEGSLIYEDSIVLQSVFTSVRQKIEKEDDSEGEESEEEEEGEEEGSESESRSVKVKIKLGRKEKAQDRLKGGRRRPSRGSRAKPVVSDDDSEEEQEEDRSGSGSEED

Compound	IC50 [1] [nM]	Ratio (BRG1 IC50 (μM) divided by BRM IC50 (μM)) [2]	IC50 [2] [nM]
COCCN(C)c1cnc2c(c1)CCCN2c1ccc2cnc(CNC(=O)c3cc(F)c4c(c3)S(=O)(=O)[C@@H](F)CCO4)cc2n1 [Compound 149]	67.7	13.78	4.9
CC#Cc1cnc2c(c1)OCCN2c1ccc2cnc(CNC(=O)c3cc(F)c4c(c3)S(=O)(=O)[C@@H](F)COC4)cc2n1 [Compound 239]	93.2	12.22	7.6
CCOc1cc(C(F)F)nc2c1OCCN2c1ccc2cnc(CNC(=O)c3cc(F)c4c(c3)S(=O)(=O)[C@@H](F)CCO4)cc2n1 [Compound 91]	46.7	14.38	3.2
C[C@H](NC(=O)c1cc(F)c2c(c1)S(=O)(=O)[C@@H](F)CCO2)c1cc2nc(N3CCOc4cc(N5CCC5)cnc43)ccc2cn1 [Compound 261]	242	25.34	8.5
O=C(NCc1cc2nc(N3CCOc4cc(N5CC(CF)C5)cnc43)ccc2cn1)c1cc(F)c2c(c1)S(=O)(=O)[C@@H](F)CCO2 [Compound 248]	128	16.34	7.8
Cc1cc(C(=O)NCc2cc3nc(N4CCOc5ccc(C(F)F)nc54)ccc3cn2)cc2c1COC[C@H](F)S2(=O)=O [Compound 237]	172	25.36	7.6
Cc1cnc2c(c1)OCCN2c1ccc2cnc(CNC(=O)c3ccc4c(c3)S(=O)(=O)[C@@H](F)CCO4)cc2n1 [Compound 83]	49.6	19.36	3.1
O=C(NCc1cc2cc(-c3cccc(C4CC4)n3)ccc2cn1)c1cc(F)c2c(c1)S(=O)(=O)[C@@H](F)COC2 [Compound 118]	63	19.47	4
COc1nc([C@@H](C)F)ccc1-c1ccc2cnc(CNC(=O)c3cc(F)c4c(c3)S(=O)(=O)[C@@H](F)CCO4)cc2n1 [Compound 259]	274	27.15	8.3
O=C(NCc1cc2nc(-c3cccc(OC(F)(F)F)n3)ccc2cn1)c1cc(F)c2c(c1)S(=O)(=O)[C@@H](F)COC2 [Compound 307]	161	20.42	10.4
O=C(NCc1cc2nc(N3CCOc4ccc([C@H](F)CF)nc43)ccc2cn1)c1cc(F)c2c(c1)S(=O)(=O)[C@@H](F)COC2 [Compound 62]	79.7	28.84	2.6
COc1nc([C@H](F)C(F)F)ccc1-c1ccc2cnc(CNC(=O)c3cc(F)c4c(c3)S(=O)(=O)[C@@H](F)CCO4)cc2n1 [Compound 287]	113	11.77	9.6
CO[C@H]1CN(c2cccc(-c3ccc4cnc(CNC(=O)c5cc(F)c6c(c5)S(=O)(=O)[C@@H](F)CCO6)cc4n3)n2)C[C@@H]1C [Compound 67]	46.2	17.37	2.7
COc1cnc2c(c1)OCCN2c1ccc2cnc(CNC(=O)c3cc(F)c4c(c3)S(=O)(=O)[C@@H](F)CCO4)cc2n1 [Compound 71]	48.3	17.64	2.7
Cc1cc2c(-c3ccc4cnc(CNC(=O)c5cc(F)c6c(c5)S(=O)(=O)[C@@H](F)CCO6)cc4n3)cccc2n1C [Compound 161]	49.3	9.63	5.1
C[C@@H]1CN(c2cnc3c(c2)OCCN3c2ccc3cnc(CNC(=O)c4cc(F)c5c(c4)S(=O)(=O)[C@@H](F)CCO5)cc3n2)C[C@@H]1F [Compound 284]	105	11.05	9.5
COc1nc([C@@H](F)CF)ccc1-c1ccc2cnc(CNC(=O)c3cc(F)c4c(c3)S(=O)(=O)[C@@H](F)CCO4)cc2n1 [Compound 202]	125	15.85	6.1
CCOCc1ccnc2c1OCCN2c1ccc2cnc(CNC(=O)c3cc(F)c4c(c3)S(=O)(=O)[C@@H](F)CCO4)cc2n1 [Compound 108]	64.4	16.69	3.9
O=C(NCc1cc2nc(N3CCOc4cc([C@H]5CC5(F)F)cnc43)ccc2cn1)c1cc(F)c2c(c1)S(=O)(=O)[C@@H](F)CCO2 [Compound 166]	83.8	15.93	5.3
